Experimental data: EP1649856A2, “Use of pimecrolimus for selective immunomodulation” (Novartis AG, priority 2001, dated 2002)
Entries after “also recorded” stand apart in the source; their conditions may differ.

Legend:
[1] = tested on: mixed-lymphocyte reaction; test: mixed-lymphocyte reaction (MLR) assay; type: cell-based; conditions: Mus musculus
Excerpt: In addition to the IL-2 reporter gene assay, the concentration of immunosuppressants, such as pimecrolimus and FK506 can be measured by the mixed-lymphocyte reaction (see Meo, The MLR in the Mouse", Immunological Methods, Lefkovits and Pemis, Eds., p. 227 Academic Press, NY).

[2] = Pharmacokinetics after multiple oral administrations to psoriatic patients for 28 days; type: in vivo, human
Protocol: Table 4. Summary of Cmax and AUCτ Following Multiple Oral Administrations of Pimecrolimus to Psoriatic Patients for 28 Days
In this study pimecrolimus was rapidly absorbed with a median tmax across all the dose groups and collection days of between 0.8 and 2.0 hours. […] There was no effect of age or weight on the apparent clearance of pimecrolimus.

in vivo = test: in vivo; design: species or system rats
Protocol: In another study designed to explore the differences between pimecrolimus and FK506 and to determine whether these differences might be associated with a different tissue distribution, the exposure to pimecrolimus and FK506 in various organs after oral administration were measured. Animals received 2 oral doses of 25 mg/kg in an interval of 2 hours. […] Pimecrolimus was found consistently to have a higher skinlblood concentration ratio than FK506 (2 hours: 7.3 vs. 2.8; 6 hours: 13 vs. 1.6; 24 hours: 36 vs. 6.0). The AUC0-24h in skin calculated for pimecrolimus was twice as high as with FK506.
These distribution characteristics are relevant not only for oral, but also for topical application, as the compound enters systemic circulation after permeation through the skin.

[3] = tested on: allergic contact dermatitis (ACD); test: Rat ACD model; type: in vivo
[4] = tested on: systemic immune responses; test: Models of systemic immunosuppression (graft-versus-host reaction, antibody formation to sheep red blood cells, kidney transplantation); type: in vivo, rats; conditions: transplantation and vaccination models
Excerpt: Pimecrolimus (also called ASM981 and ELIDEL®) is an ascomycin macrolactam-derivative with anti-inflammatory properties, chemical name is 33-epichloro-33-desoxy-ascomycin. Pimecrolimus is an ascomycin macrolactam-derivative developed originally for topical and oral treatment of inflammatory skin diseases such as atopic dermatitis and psoriasis. Pimecrolimus binds to macrophilin-12 and inhibits the Ca-dependent phosphatase calcineurin. As a consequence, it inhibits T cell activation and blocks the transcription and release of both Th1 and Th2 inflammatory cytokines. […] Tachyphylaxis has not been observed.

[5] = tested on: SCID mice reconstituted with CD4^+CD45RB^HI T cells; test: SCID-IBD mouse model, delayed treatment of established IBD; type: in vivo; conditions: 100 mg/kg/day p.o. started after 7, 14 or 21 days, until 41 days
Protocol: In order to determine if pimecrolimus is also effective once IBD is established, SCID mice were treated with pimecrolimus at a dose level of 100 mg/kg/day at days 7, 14 or 21 following the transfer of the disease causing CD4^+ T cells. The study was terminated after 41 days, i.e., the mice were treated for 33, 26 and 19 days, respectively.
SCID mice were reconstituted with 2 x 10^5 CD4^+CD45RB^HI T cells and treatment with pimecrolimus (100 mg/kg/day p.o.) started after 7, 14 or 21 days and continued daily until 41 days. Treatment with the placebo formulation started after 7 days. BW was monitored once a week for the first 2 weeks and then twice weekly. Data are expressed as mean percent BW relative to the weight on day 0 ± s.e.m. for n = 9 (PBS), n = 8 (ASM(7d) & ASM(21d) and n = 7 (ASM(14d) and placebo) mice per group. PBS refers to the non-transferred mice which have been pooled with regard to percent BW values since no treatment dependent changes were found. p<0.01 relative to the placebo-treated group at 41 days.
SCID mice were reconstituted with 2 x 10^5 CD4^+CD45RB^HI T cells and treatment with pimecrolimus (100 mg/kg/day p.o.) started after 7, 14 or 21 days and continued daily until 41 days. Treatment with the placebo formulation started after 7 days. On day 41, mice were killed and serum kept for haptoglobin assay. Data are expressed as mean haptoglobin (mg/mL) ± s.e.m. for n = 9 (PBS), n = 8 (ASM(7d)) and n = 7 (ASM(14d), ASM(21d) and placebo) mice per group. […]
SCID mice were reconstituted with 2 x 10^5 CD4^+CD45RB^HI T cells and treatment with pimecrolimus (100 mg/kg/day p.o.) started after7, 14 or 21 days and continued daily until 41 days. […] Data are expressed as the mean neutrophil numbers, calculated from the percent positive cells and the total cell number per sample, ± s.e.m. for n mice (n in each bar) per group. p<0.05 calculated relative to the placebo-treated group.

blood cells = conditions: 30 mg b.i.d. oral
Protocol: Pimecrolimus was evaluated as treatment for psoriasis using an oral dose of 60 mg (30 mg b.i.d) during a 4-week clinical study. The cohort included 10 patients; 8 received the treatment and 2 received a placebo. Blood samples were collected before the first administration to establish the gene expression baseline and on days 13 or 14 after treatment with pimecrolimus or placebo and submitted to gene expression analysis in order to gain insights into the mechanisms of action of the compound.
The RNA from blood samples drawn from each patient in the study was extracted and tested on individual DNA microarrays, thus allowing, for each patient, a comparison of gene expression before and after pimecrolimus treatment. […] Genes that were consistently modulated were sorted in functional categories.

[6] = 20 mg b.i.d. oral, Day 13, Mean ± SD, 18720 min
[7] = 20 mg b.i.d. oral, Day 28, Mean ± SD, 40320 min
[8] = human, blood, 5 mg q.d. oral, Day 1, Mean ± SD
[9] = human, blood, 5 mg q.d. oral, Day 13, Mean ± SD
[10] = human, blood, 5 mg q.d. oral, Day 28, Mean ± SD
[11] = human, blood, 10 mg q.d. oral, Day 1, Mean ± SD
[12] = human, blood, 10 mg q.d. oral, Day 28, Mean ± SD
[13] = human, blood, 20 mg q.d. oral, Day 13, Mean ± SD
[14] = human, blood, 20 mg q.d. oral, Day 28, Mean ± SD
[15] = human, blood, 30 mg b.i.d. oral, Day 1, Mean ± SD
[16] = human, blood, 30 mg b.i.d. oral, Day 13, Mean ± SD
[17] = human, blood, 30 mg b.i.d. oral, Day 28, Mean ± SD

With CC[C@@H]1/C=C(\C)C[C@H](C)C[C@H](OC)[C@H]2O[C@@](O)(C(=O)C(=O)N3CCCC[C@H]3C(=O)O[C@H](/C(C)=C/[C@@H]3CC[C@H](Cl)[C@H](OC)C3)[C@H](C)[C@@H](O)CC1=O)[C@H](C)C[C@@H]2OC [pimecrolimus, 33-epichloro-33-desoxy-ascomycin] the IC50 [1] was 9 nM, the “AUCτ,b” value ([2]; 20 mg b.i.d. oral, Day 1, Mean ± SD, 1440 min) was 139.9 ± 39.2 ng·h/mL and the “AUCτ,b” value [2, 6] was 259.6 ± 122.6 ng·h/mL. For the same molecule, the “Cmax,b” value [2, 6] was 54.7 ± 36.3 ng/mL, the “AUCτ,b” value [2, 7] was 229.5 ± 90.9 ng·h/mL and the “Cmax,b” value [2, 7] was 41.7 ± 16.5 ng/mL. The “mean AUC at steady-state over 24 hours” value ([2]; 30 mg b.i.d., day 28, calculated assuming identical AUCτ for morning and evening doses) was ~562 ng·h/mL, the AUC at 24 h ([2]; human, blood, po, 30 mg b.i.d., day 13, calculated assuming identical AUCτ for morning and evening doses, read-out: mean AUC at steady-state over 24 hours) was ~590 ng·h/mL and the Tmax ([2]; human, blood, po, across all the dose groups and collection days, read-out: median tmax) was 0.8 to 2 h. For the same molecule, the concentration at 504 h ([2]; human, blood, po, day 21 of the 30 mg BID dose schedule, read-out: highest median blood trough concentration) was 18 ng/mL, the half-life ([2]; human, blood, po, recorded after the final dose, read-out: terminal half-life) was 50 to 100 h and the AUC tau at 24 h [2, 8] was 23.3 ± 13 ng·h/mL. For the same molecule, the Cmax at 24 h [2, 8] was 8.7 ± 2.3 ng/mL, the AUC tau at 312 h [2, 9] was 44.5 ± 18.2 ng·h/mL and the Cmax at 312 h [2, 9] was 9.7 ± 2.5 ng/mL. The AUC tau at 672 h [2, 10] was 35.5 ± 15.8 ng·h/mL, the Cmax at 672 h [2, 10] was 9.9 ± 4.8 ng/mL and the AUC tau at 24 h [2, 11] was 80.6 ± 31.4 ng·h/mL. The Cmax at 24 h [2, 11] was 25.9 ± 8.5 ng/mL, the Cmax at 312 h ([2]; human, blood, 10 mg q.d. oral, Day 13, Mean ± SD) was 21.8 ± 7.9 ng/mL and the AUC tau at 672 h [2, 12] was 90.9 ± 35.4 ng·h/mL. The Cmax at 672 h [2, 12] was 24 ± 9.2 ng/mL, the Cmax at 24 h ([2]; human, blood, 20 mg b.i.d. oral, Day 1, Mean ± SD) was 41.3 ± 16 ng/mL and the AUC tau at 24 h ([2]; human, blood, 20 mg q.d. oral, Day 1, Mean ± SD) was 173 ± 56 ng·h/mL. For the same molecule, the AUC tau at 312 h [2, 13] was 253 ± 40.1 ng·h/mL, the Cmax at 312 h [2, 13] was 55.3 ± 21.4 ng/mL and the AUC tau at 672 h [2, 14] was 258 ± 65.9 ng·h/mL. For the same molecule, the Cmax at 672 h [2, 14] was 58.3 ± 25.4 ng/mL, the AUC tau at 24 h [2, 15] was 206 ± 64 ng·h/mL and the Cmax at 24 h [2, 15] was 49.1 ± 21.6 ng/mL. For the same molecule, the AUC tau at 312 h [2, 16] was 295 ± 60.1 ng·h/mL, the Cmax at 312 h [2, 16] was 54.5 ± 27 ng/mL and the AUC tau at 672 h [2, 17] was 281 ± 32.8 ng·h/mL. The Cmax at 672 h [2, 17] was 41.1 ± 8.4 ng/mL, the AUC(0-t) at 24 h ([2]; human, blood, psoriatic patients, oral, read-out: AUC(0-24) associated with a significant clinical response in the target epithelial tissue) was ≥ 400 ng·h/mL and the “Trough concentrations associated with a significant clinical response in the target epithelial tissue” value ([2]; human, in vivo, po) was ≥ 7 ng/mL. For the same molecule, the “AUC0-24h in skin compared with FK506” value (in vivo; 2 oral doses of 25 mg/kg) was “twice as high”, the “exposure in all other tissues, including blood, lymph nodes and kidney, compared with FK506” value (in vivo; 2 oral doses of 25 mg/kg) was “lower” and the Kp at 2 h (in vivo; rat, skin, 2 oral doses of 25 mg/kg in an interval of 2 hours, 2 hours after the last dosing, read-out: skinlblood concentration ratio) was 7.3. For the same molecule, the Kp at 6 h (in vivo; rat, skin, 2 oral doses of 25 mg/kg in an interval of 2 hours, 6 hours after the last dosing, read-out: skinlblood concentration ratio) was 13, the Kp at 24 h (in vivo; rat, skin, 2 oral doses of 25 mg/kg in an interval of 2 hours, 24 hours after the last dosing, read-out: skinlblood concentration ratio) was 36 and the “efficacy compared with FK506” value ([3]; oral, same doses, rat ACD model) was “superior”. The “efficacy relative to oral CyA” value ([3]; rat ACD (12.5 mg/kg pimecrolimus similar to 50 mg/kg CyA)) was 4 fold, the “systemic immunosuppressive effect compared to CyA and FK506” value [4] was “only a low potential to impair systemic immune responses; also recorded: minimal immunosuppressive effects” and the “acute phase response (serum haptoglobin) in established IBD” value [5] was “inhibits the ongoing acute phase response”. For the same molecule, the “blood and spleen neutrophilia in established/ongoing colitis” value [5] was “strongly inhibits”, the “loss of BW in established/ongoing colitis” value [5] was “highly-effective in reversing the loss of BW” and the “toxic effect in the expression profile” value (blood cells) was “No obvious toxic effect”. The “expression of genes involved in asthma and IBD (RANTES, GALECTIN-3, Thromboxane A2 receptor, Glutathione peroxidase)” value (blood cells; days 13 or 14 vs baseline) was “specifically and significantly down-regulated” and the “expression of inflammatory mediators (Leukotriene A4 hydrolase, prostaglandin endoperoxide synthase)” value (blood cells; days 13 or 14 vs baseline) was “strongly down regulate”.
